In patent publication US8012487B2, “Synthetic peptides and DNA sequences for treatment of multiple sclerosis” (priority 2001, dated 2011):
Where no end group is shown, it is not given here.

Tests used:
[1] = system: EAE induced by Y-MSPb-reactive line T-cells; assay: EAE associated with multiple pathogenic autoreactivities induced by transfer of Y-MSPb-reactive line T-cells; type: in vivo, (C3H.SW×SJL/J)F1 mice; settings: in PBS given daily i.p. from the day of T-cell transfer; FIG. 9B
Description: Y-MSPb, the purified protein product of the synthetic Y-MSPb gene, disclosed in WO 01-31037, designed to encode tandemly arranged disease-relevant epitopes clusters of the encephalitogenic proteins MBP, PLP, MOG, and MOBP, was tested for its immunomodulatory effect on EAE associated with multiple pathogenic autoreactivities, upon tolerogenic administration, in the same way as described for Y-MSPa in WO 01-31037.
Line T-cells were selected in vitro with Y-MSPb from lymph node cells (LNCs) of (C3H.SW×SJL/J)F1 mice immunized with Y-MSPb (containing encephalitogenic epitopes of MOG, MBP, PLP and MOBP) in CFA, and were analyzed after primary response (left panel) and after four cycles of selection (right panel) for their proliferative response to Y-MSPb, phMOG 34-56, phMOG 1-22, shMOG/E, PLP 139-151, shPLP/E, MBP 87-101 and shMBP/E (10 μ/ml). The proliferative response to purified protein derivative (PPD) (5 μ/ml) was analyzed as a measure of specificity. The line T cells are directed against each of the myelin autoantigens.

lymph node cells = assay: Ex vivo response to MOG 37-52 by lymph node cells isolated from treated mice; type: cell-based; settings: cells from APL-treated C3H.SW mice
[2] = system: EAE induced with MOG 37-52; assay: EAE induced with MOG 37-52, treatment with MOG APLs; type: in vivo; settings: C3H.SW mice; 400 μg in PBS i.v. on days 5, 7, 9 and 12 after encephalitogenic challenge; FIG. 8
[3] = system: chronic EAE induced with whole PLP; settings: SJL/J mice; tolerization; cited from earlier work
TCR = TCR signaling in MOG 37-52-reactive T-cell clones; type: cell-based, mice; settings: peptide alone; not shown
Description: Possible mechanisms by which the relevant APLs may inhibit MOG 37-52-reactive T-cell clones in vitro were tested by analyzing their effect on TCR signaling, as well as on cytokine secretion by the clones.

[4] = system: APL-specific T-cell lines; assay: Cytokine profile of APL-specific T-cell lines (ELISA); type: cell-based, mice; settings: pilot studies, not shown
From the text: (§1) For EAE induced in H-2^b haplotype mice (C3H.SW, C57BL) by MOG 35-55 (SEQ ID NO: 234), we have defined residues 41 and 44 as crucial TCR contact residues for the interaction between the encephalitogenic nonameric core sequence MOG 40-48, found by molecular modelling studies to represent the preferred binding mode for MOG 35-55 to IA^b, and the TCR of H-2^b MOG-specific T-cells. APLs with non-conservative substitutions at either or both of these residues elicited T-cell responses which were not encephalitogenic (not shown). In vitro, these APLs inhibited the proliferation of T-cell clones to MOG 37-52, the minimal optimal stimulatory peptide. […] MOG35-55-specific T-cell line was raised from MOG35-55-immunized C3H.SW mice as described (Mendel et al., 1996). Cytokine assays were performed by ELISA according to PharMingen standard protocols.

[5] = system: H-2^b haplotype mice (C3H.SW, C57BL); assay: Encephalitogenicity of T-cell responses elicited by APLs; type: in vivo; settings: H-2^b mice; not shown
From the text: as §1

[6] = system: EAE induced with MBP, MOG or MBP/MOG combination; settings: (PL/J×SJL/J) F1 mice, cited from earlier work

## MOG 37-52: native MOG peptide, the minimal optimal stimulatory peptide (VGWYRPPFSRVVHLYR; Synthetic peptide containing sequence 37-52 of MOG.)
[1]
  EAE induced by Y-MSPb-reactive line T-cells: disease incidence or severity: no significant effect

## MOG 37-Q41-52: MOG 37-52 altered peptide ligand substituted at TCR contact residue 41 (VGWYQPPFSRVVHLYR; The peptide of SEQ ID NO231 in which the residue at position 5 was replaced by Gln.)
Lymph node cells
  response ex vivo to MOG 37-52 by lymph node cells isolated from treated mice: markedly reduced response
[2]
  severity and incidence of EAE induced with the native MOG 37-52: marked decrease

## PLP139-151: major encephalitogenic peptide of PLP (CHCLGKWLGHPDK; UniProt P60202 139-151, looked up, fragment)
[3]
  chronic EAE induced with whole PLP: acute phase and relapses: abrogated the primary acute phase, but not subsequent relapses
[1]
  EAE induced by Y-MSPb-reactive line T-cells: disease incidence or severity: no significant effect

## MOG 37-A44-52: APL of MOG 37-52 wherein F44 is substituted by A44 (VGWYRPPASRVVHLYR; The peptide of SEQ ID NO231 in which the residue at position 8 was replaced by Ala.)
TCR
  TCR signaling in the T-cell clones: induces partial TCR signaling
Lymph node cells
  response ex vivo to MOG 37-52 by lymph node cells isolated from treated mice: markedly reduced response
[4]
  cytokine profile of APL-specific T-cell lines: elicits Th2 T-cells
[5]
  encephalitogenicity of the APL / of the T-cell responses it elicits: non-encephalitogenicity
[2]
  severity and incidence of EAE induced with the native MOG 37-52: marked decrease

## MBPAc1-11: immunodominant encephalitogenic epitope within MBP (Ac-MGNHSGKRELS; UniProt P04370 1-11, looked up, fragment)
[6]
  MBP-induced EAE: suppresses
  MOG-induced EAE: no effect
[6]; tolerogenic administration
  clinical severity of EAE induced with a combination of MBP and MOG: marginal therapeutic effect
